Reference: US20110288154A1, “RNA Interference Mediated Inhibition of Epithelial Sodium Channel (ENaC) Gene Expression Using Short Interfering Nucleic Acid (siNA)” (MERCK & CO., INC., priority 2008, published 2011)
[invAb] = inverted abasic unit; m = 2'-O-methyl; r = 2'-OH (RNA); f = 2'-fluoro

Test system: ENaCα mRNA
Test: Screening of ENaCα siNAs in human A549 cells (quantitative RT-PCR)
Type: cell-based
Design: Percent Reduction of the ENaCα mRNA relative to a non-targeting control siNA (NTC): concentration or dose not given beside the values
Conditions: for Avg ENaCα Expression / Mean (level of ENaCα expression normalized to the level of GAPDH) / Percent Reduction of the ENaCα mRNA relative to a non-targeting control siNA (NTC) / Avg GAPDH Expression: human A549 cells, n = 3; for Avg ENaCα Expression: 25 nM siNA with Lipofectamine 2000, harvested 24 hours post-transfection; for Mean (level of ENaCα expression normalized to the level of GAPDH) / Percent Reduction of the ENaCα mRNA relative to a non-targeting control siNA (NTC) / Avg GAPDH Expression: 24 hours post-transfection; for Avg GAPDH Expression: housekeeping gene used for normalisation; for IC50 / Human % KD (efficacy of ENaCα mRNA knockdown): human cell line; for IC50: dose response, read-out: Human IC50 (potency of ENaCα mRNA knockdown); for Human % KD (efficacy of ENaCα mRNA knockdown): summary
Outline: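 ENaCα knockdown in human A549 cells is measured by qRT-PCR (standard-curve quantitation), normalized to a non-targeting siNA control. Lipofectamine 2000 complexes deliver 25 nM siNA per well (lipid 2.33 μg/ml, held constant in dose-response); IC50 from a sigmoidal variable-slope fit.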

Substance	Avg ENaCα Expression	Mean (level of ENaCα expression normalized to the level of GAPDH)	Percent Reduction of the ENaCα mRNA relative to a non-targeting control siNA (NTC)	Avg GAPDH Expression	IC50	Human % KD (efficacy of ENaCα mRNA knockdown)
B uGGGcAGccAGuGGAGccu TTB / AGGcuccAcuGGcuGcccAUU (sense UGGGCAGCCAGUGGAGCCUTT; antisense AGGCUCCACUGGCUGCCCAUU; siRNA; sense: DNA at AGT, 2'-fluoro at CU, [invAb] at 5' end, 3' end, backbone not given here; antisense: sugars from the 5' end rrrffffmffmmffmfffmmm, backbone not given here) [Site 1751]	63.35	0.49	25.4%	128.83		
B uGGcuGuGccuAcAucuuc TTB / GAAGAuGuAGGcAcAGccAUU (sense UGGCUGUGCCUACAUCUUCTT; antisense GAAGAUGUAGGCACAGCCAUU; siRNA; sense: DNA at AGT, 2'-fluoro at CU, [invAb] at 5' end, 3' end, backbone not given here; antisense: sugars from the 5' end rrrmmfmfmmmfmfmmffmmm, backbone not given here) [Site 1386]	72.05	0.64	2.8%	112.63		
B uGuGGcuGuGccuAcAucu TTB / AGAuGuAGGcAcAGccAcAUU (sense UGUGGCUGUGCCUACAUCUTT; antisense AGAUGUAGGCACAGCCACAUU; siRNA; sense: DNA at AGT, 2'-fluoro at CU, [invAb] at 5' end, 3' end, backbone not given here; antisense: sugars from the 5' end rrrfmfmmmfmfmmffmfmmm, backbone not given here) [Site 1384]	82.65	0.80	−21.6%	103.38		
B uGuGcAAccAGAAcAAAuc TTB / GAUuuGuucuGGuuGcAcAUU (chain 1 UGUGCAACCAGAACAAAUCTT; chain 2 GAUUUGUUCUGGUUGCACAUU; siRNA; B caps on sense ends, letter-case modifications not given here, further chemistry not given here) [Site 782]	39.99	0.61	60.9%	66.25	0.36 nM	60-85%
B uGuccAAccuGGGcAGccA TTB / UGGcuGcccAGGuuGGAcAUU (sense UGUCCAACCUGGGCAGCCATT; antisense UGGCUGCCCAGGUUGGACAUU; siRNA; sense: DNA at AGT, 2'-fluoro at CU, [invAb] at 5' end, 3' end, backbone not given here; antisense: sugars from the 5' end rrrffmfffmmmffmmmfmmm, backbone not given here) [Site 1742]	58.12	0.53	19.7%	109.65		
B uccuGuccAAccuGGGcAG TTB / CUGcccAGGuuGGAcAGGAUU (sense UCCUGUCCAACCUGGGCAGTT; antisense CUGCCCAGGUUGGACAGGAUU; siRNA; sense: DNA at AGT, 2'-fluoro at CU, [invAb] at 5' end, 3' end, backbone not given here; antisense: sugars from the 5' end rrrfffmmmffmmmfmmmmmm, backbone not given here) [Site 1739]	75.77	0.75	−13.8%	100.60		
B uuAuGGAuGAuGGuGGcuu TTB / AAGccAccAucAuccAuAAUU (sense UUAUGGAUGAUGGUGGCUUTT; antisense AAGCCACCAUCAUCCAUAAUU; siRNA; B caps on sense ends, letter-case modifications not given here, further chemistry not given here) [Site 1181]	36.75	0.55	64.7%	70.22	0.4 nM	65-80%
